Measured values: ChEMBL document CHEMBL1201862, “PubChem BioAssay data set” (2004)
Active and inactive are the calls of the source.

molecular target: T1, Streptokinase A (Streptococcus pyogenes serotype M1, UniProt P10520); test: S. pyogenes streptokinase expression inhibitors, potency, dose response, plasminogen activation absorbance, OD405 (AID 1914); type: functional, Streptococcus pyogenes M1 GAS; conditions: not given;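 also: secreted streptokinase activity via plasminogen activation per viability signal from cell pellet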
T1 sequence (P10520 whole entry): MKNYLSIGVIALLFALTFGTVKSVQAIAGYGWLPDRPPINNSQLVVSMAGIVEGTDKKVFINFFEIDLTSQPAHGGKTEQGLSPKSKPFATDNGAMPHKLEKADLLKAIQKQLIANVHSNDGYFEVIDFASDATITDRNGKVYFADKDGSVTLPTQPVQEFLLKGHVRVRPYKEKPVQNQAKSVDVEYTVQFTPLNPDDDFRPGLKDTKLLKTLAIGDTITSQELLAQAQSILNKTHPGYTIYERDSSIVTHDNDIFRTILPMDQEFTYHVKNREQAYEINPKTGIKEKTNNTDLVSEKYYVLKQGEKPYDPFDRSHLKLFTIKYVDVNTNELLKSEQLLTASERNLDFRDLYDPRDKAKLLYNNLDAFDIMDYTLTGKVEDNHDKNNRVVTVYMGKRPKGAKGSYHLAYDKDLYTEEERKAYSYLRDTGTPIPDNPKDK

Compound	EC50
COc1ccc(Br)cc1/C=C/c1ccc2cccc(O)c2n1	> 150 µM (not active)
Fc1ccc(CSc2ncnc3sc4c(c23)CCCC4)cc1	13.3 µM (active)

molecular target: Cytochrome P450 2C19 (Homo sapiens, UniProt P33261); test: Cytochrome panel assay with activity outcomes. Panel member name: p450-cyp2c19 Compounds with AC50 equal or less than 10 uM are considered active; type: functional; conditions: not given
Sequence (P33261 whole entry): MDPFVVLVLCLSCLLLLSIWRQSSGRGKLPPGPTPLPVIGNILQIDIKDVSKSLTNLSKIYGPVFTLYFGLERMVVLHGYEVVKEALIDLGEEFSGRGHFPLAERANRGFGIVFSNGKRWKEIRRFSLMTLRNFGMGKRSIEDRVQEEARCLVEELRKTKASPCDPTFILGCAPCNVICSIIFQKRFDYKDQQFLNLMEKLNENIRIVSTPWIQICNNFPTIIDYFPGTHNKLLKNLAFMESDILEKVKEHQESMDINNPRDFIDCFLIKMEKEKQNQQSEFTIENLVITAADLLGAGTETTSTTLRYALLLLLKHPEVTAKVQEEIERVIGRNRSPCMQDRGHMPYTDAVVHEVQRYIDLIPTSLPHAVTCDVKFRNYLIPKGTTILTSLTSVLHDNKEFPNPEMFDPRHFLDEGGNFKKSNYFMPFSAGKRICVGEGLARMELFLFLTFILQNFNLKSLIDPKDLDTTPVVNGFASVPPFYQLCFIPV

Compound	AC50
N=c1ccn2c(n1)O[C@H]1[C@@H](OP(=O)(O)O)[C@H](CO)O[C@H]12	inconclusive
C#CCCCO/N=C1/C[C@@H](O)[C@@H](O)[C@@H]2[C@@H]3C(=O)N(Cc4ccccc4)C(=O)[C@H]3CC[C@@H]12	inconclusive
Cc1noc(NS(=O)(=O)c2ccc(NC(=O)CC34CC5CC(CC(Br)(C5)C3)C4)cc2)c1C	inconclusive

same assay, conditions: read-out: AC50

Compound	AC50
CN(C)c1ccc(-c2ccc3ncnc(N4CCNCC4)c3c2)cc1	25.1 µM (inconclusive)
CCCN1C(=O)C(Cc2nc3ccccc3c(=O)n2C)c2ccccc21 (centres undefined)	0.0562 µM (inconclusive)
CN(C)CCOC(=O)C1(c2ccccc2)CCOCC1	20 µM (inconclusive)
NS(=O)(=O)c1ccc(/N=N\c2cccnc2O)cc1	3.98 µM (inconclusive)
O=C(O)[C@H]1CCCC[C@@H]1c1c2ccc(=O)c(O)c-2oc2c(O)c(O)ccc12	2.51 µM (inconclusive)
COC(=O)[C@@]1(Cc2ccc(F)cc2)[C@H]2c3cc(C(=O)N(C)C)n(Cc4c(CO)ncc(C)c4O)c3C[C@H]2CN1C(=O)c1ccccc1	25.1 µM (inconclusive)
CC(=O)c1ccc(NC(=O)C2CC(c3ccc(F)cc3)=NO2)cc1 (centres undefined)	17.8 µM (inconclusive)
O=S(=O)(NCCNC/C=C\c1ccc(Br)cc1)c1cccc2cnccc12	15.8 µM (inconclusive)
CCCCCCCCN[C@@H](C)[C@H](O)c1ccc(SC(C)C)cc1 [SULOCTIDIL]	10 µM (inconclusive)

system: not listed separately; test: inhibitors of SNCA 5'UTR-driven reporter translation, confirmation, H4 neuroglioma cells, luminescence (AID 1988); type: functional, cell-based; conditions: not given

Compound	EC50
COc1ccc(Br)cc1/C=C/c1ccc2cccc(O)c2n1	> 120 µM (not active)

system: not listed separately; test: Luminescence Cell-Based Dose Response HTS to Identify Inhibitors of 5'UTR Stem-Loop Driven Prion Protein mRNA Translation in H4 Neuroglioblastoma Cells. [Related pubchem assays: 1827 (Project Summary), 1813 (Primary HTS)]; type: functional; conditions: not given

Compound	EC50
COc1ccc(Br)cc1/C=C/c1ccc2cccc(O)c2n1	13.4 µM (active)

molecular target: Cytochrome P450 2D6 (Homo sapiens, UniProt P10635); conditions: not given;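 also: CYP2D6 member of a cytochrome P450 panel assay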
Sequence (P10635 whole entry): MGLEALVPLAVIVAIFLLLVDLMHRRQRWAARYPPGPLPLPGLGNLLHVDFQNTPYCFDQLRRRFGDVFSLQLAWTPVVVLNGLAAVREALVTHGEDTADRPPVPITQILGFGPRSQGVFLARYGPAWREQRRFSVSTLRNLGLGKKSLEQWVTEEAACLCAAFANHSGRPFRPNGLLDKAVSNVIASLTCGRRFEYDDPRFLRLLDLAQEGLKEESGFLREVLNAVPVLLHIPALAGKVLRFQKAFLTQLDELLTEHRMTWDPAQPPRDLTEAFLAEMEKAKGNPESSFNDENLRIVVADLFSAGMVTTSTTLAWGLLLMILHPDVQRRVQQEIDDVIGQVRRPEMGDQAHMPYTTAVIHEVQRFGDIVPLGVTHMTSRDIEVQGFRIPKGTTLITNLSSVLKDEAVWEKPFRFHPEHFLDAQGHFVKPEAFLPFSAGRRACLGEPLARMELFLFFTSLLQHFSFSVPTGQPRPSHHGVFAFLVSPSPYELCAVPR

Compound	AC50
c1cc(CNCCN2CCNCC2)ccn1	3.98 µM (inconclusive)
CCCN1C(=O)C(Cc2nc3ccccc3c(=O)n2C)c2ccccc21 (centres undefined)	17.8 µM (inconclusive)
Cc1cccc(OCCCC(=O)Nc2ccccc2C(F)(F)F)c1	25.1 µM (inconclusive)
O=c1cnc2cnc(Oc3ccccc3)nc2n1Cc1cccs1	39.8 µM (inconclusive)
CS(=O)(=O)N1CCC2(CC1)CN(Cc1ccncc1)C2	20 µM (inconclusive)
CC(C)Oc1ccc(N2CC(C(=O)OCC(=O)NCc3ccccc3)CC2=O)cc1 (centres undefined)	22.4 µM (inconclusive)
COc1cccc(C(=O)Nc2ccc(NC(=O)c3ccco3)cn2)c1	20 µM (inconclusive)
O=C(c1cccc(F)c1)N1CCC2(CCCN(c3ccncc3)C2)CC1	15.8 µM (inconclusive)
O=S(=O)(NCCNC/C=C\c1ccc(Br)cc1)c1cccc2cnccc12	25.1 µM (inconclusive)
COc1ccccc1CNc1ncnc2ccc(-c3cccc(C#N)c3)cc12	2.51 µM (inconclusive)

molecular target: Cytochrome P450 3A4 (Homo sapiens, UniProt P08684); conditions: not given;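 also: CYP3A4 tested as one member of a cytochrome P450 panel screen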
Sequence (P08684 whole entry): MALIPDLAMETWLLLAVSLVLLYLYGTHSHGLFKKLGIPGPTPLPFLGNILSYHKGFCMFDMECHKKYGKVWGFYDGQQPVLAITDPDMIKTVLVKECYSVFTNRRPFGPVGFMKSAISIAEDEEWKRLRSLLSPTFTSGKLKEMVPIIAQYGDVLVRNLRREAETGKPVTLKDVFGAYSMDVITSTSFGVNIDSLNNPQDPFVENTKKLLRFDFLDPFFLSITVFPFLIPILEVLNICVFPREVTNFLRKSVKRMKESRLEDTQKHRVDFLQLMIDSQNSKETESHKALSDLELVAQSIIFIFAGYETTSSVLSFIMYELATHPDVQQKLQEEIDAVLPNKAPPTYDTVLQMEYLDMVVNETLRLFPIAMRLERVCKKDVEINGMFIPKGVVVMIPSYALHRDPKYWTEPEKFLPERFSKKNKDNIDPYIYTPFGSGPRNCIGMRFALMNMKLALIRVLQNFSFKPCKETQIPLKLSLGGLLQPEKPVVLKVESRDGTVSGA

Compound	AC50
c1cc(CNCCN2CCNCC2)ccn1	5.01 µM (inconclusive)
Cc1cc(C)cc(NC(=O)CC(=N)NO)c1	28.2 µM (inconclusive)
c1cncc(-c2cc(-c3cc(-c4cccnc4)[nH]n3)n[nH]2)c1	5.01 µM (inconclusive)
Cc1ccc(SCc2ccc(C(=O)NCc3ccncc3)cc2)cc1	7.08 µM (inconclusive)
Cc1nc2cnc(Oc3ccccc3)nc2n(C2CC2)c1=O	25.1 µM (inconclusive)
CN(C)c1ncc2nc(-c3cccs3)c(=O)n(C)c2n1	31.6 µM (inconclusive)
CCOC(=O)C1=C(C)NC(=O)N[C@@H]1c1coc2cc(C)cc(C)c2c1=O	3.98 µM (inconclusive)
Fc1ccc(CSc2ncnc3sc4c(c23)CCCC4)cc1	35.5 µM (inconclusive)
O=c1cnc2cnc(Oc3ccccc3)nc2n1Cc1cccs1	15.8 µM (inconclusive)
CS(=O)(=O)N1CCC2(CC1)CN(Cc1ccncc1)C2	31.6 µM (inconclusive)
Cn1cc(-c2nc3cnc(N4CCNCC4)nc3n(C3CC3)c2=O)c2ccccc21	7.94 µM (inconclusive)
c1ccc2c(c1)CCCc1cc(NCCN3CCOCC3)nnc1-2	6.31 µM (inconclusive)
CCOc1ccc(N/N=C(/C#N)C(N)=O)cc1	20 µM (inconclusive)

molecular target: T2, Heat shock factor protein 1 (Mus musculus, UniProt P38532); test: inhibition of MG132-induced HSE-luciferase signal, confirmation, cell-based, NIH3T3, luminescence, dose retest (AID 2382); type: functional; conditions: not given;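 also: NIH3T3 fibroblasts with HSF1-driven luciferase reporter stressed by proteasome inhibitor MG132; luminescence from HSF1-driven luciferase expression after 8 hours of MG132 stress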
T2 sequence (P38532 whole entry): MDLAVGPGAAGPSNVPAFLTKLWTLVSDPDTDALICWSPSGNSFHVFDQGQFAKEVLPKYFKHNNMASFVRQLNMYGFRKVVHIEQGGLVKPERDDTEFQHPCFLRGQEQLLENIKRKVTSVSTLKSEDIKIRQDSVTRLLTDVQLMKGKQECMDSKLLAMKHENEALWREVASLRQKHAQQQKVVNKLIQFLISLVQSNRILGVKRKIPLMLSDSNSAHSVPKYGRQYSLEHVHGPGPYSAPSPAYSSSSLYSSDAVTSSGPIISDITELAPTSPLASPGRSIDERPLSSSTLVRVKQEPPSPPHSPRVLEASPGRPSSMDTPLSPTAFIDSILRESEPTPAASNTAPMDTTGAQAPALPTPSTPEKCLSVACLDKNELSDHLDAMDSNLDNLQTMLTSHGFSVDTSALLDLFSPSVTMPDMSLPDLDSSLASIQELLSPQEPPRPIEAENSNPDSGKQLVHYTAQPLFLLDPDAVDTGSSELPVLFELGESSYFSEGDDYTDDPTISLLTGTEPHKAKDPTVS

Compound	EC50
COc1ccc(-n2nc3ccccc3n2)cc1	> 195 µM (not active)
Cn1c(=O)c2c(nc(Sc3ncnn3CC(=O)N3CCOCC3)n2C)n(C)c1=O	> 195 µM (not active)
COC(=O)c1cn(NC(=O)CCC2CCCC2)c(=O)c2ccccc12	> 195 µM (not active)
O=C(O)c1csc(-c2ccccc2)n1	> 195 µM (not active)
CCCOc1ccc2cc(C(=O)NCc3ccccc3)c(=O)oc2c1	42 µM (active)
O=C(CCCC(=O)N(c1ccc2c(c1)OCCO2)C(C(=O)NC1CCCCC1)c1ccc(Cl)cc1)Nc1ccccn1 (centres undefined)	> 195 µM (not active)
CCOC(=O)c1nnc(O)c2ccccc12	> 195 µM (not active)
CCCn1c(N)c(C(=O)CSc2nc3ccccc3c(=O)n2Cc2ccccc2)c(=O)[nH]c1=O	> 195 µM (not active)
CC(=O)Nc1cccc(-n2c(=O)n(Cc3ccccc3)c(=O)c3[nH]cnc32)c1	> 195 µM (not active)
COc1ccc(Nc2nc(Nc3ccc(OC)cc3)nc(-n3[nH]c(=O)c(C)c3C)n2)cc1	22.3 µM (active)
Cc1ccc(F)cc1NC(=O)CCNC(=O)c1ccc([N+](=O)[O-])cc1	> 195 µM (not active)
CC(=O)c1cccc(NC(=O)CN2C(S)=NC(C)(C)CC2C)c1 (centres undefined)	> 195 µM (not active)
Cc1cccc(-c2ocnc2C(=O)N2CCN(C(=O)c3cccs3)CC2)c1	> 195 µM (not active)
COc1ccc(/C=N/NC(=O)Nc2cccc3nsnc23)cc1OC	9.51 µM (active)

molecular target: Cytochrome P450 2C9 (Homo sapiens, UniProt P11712); conditions: not given
Sequence (P11712 whole entry): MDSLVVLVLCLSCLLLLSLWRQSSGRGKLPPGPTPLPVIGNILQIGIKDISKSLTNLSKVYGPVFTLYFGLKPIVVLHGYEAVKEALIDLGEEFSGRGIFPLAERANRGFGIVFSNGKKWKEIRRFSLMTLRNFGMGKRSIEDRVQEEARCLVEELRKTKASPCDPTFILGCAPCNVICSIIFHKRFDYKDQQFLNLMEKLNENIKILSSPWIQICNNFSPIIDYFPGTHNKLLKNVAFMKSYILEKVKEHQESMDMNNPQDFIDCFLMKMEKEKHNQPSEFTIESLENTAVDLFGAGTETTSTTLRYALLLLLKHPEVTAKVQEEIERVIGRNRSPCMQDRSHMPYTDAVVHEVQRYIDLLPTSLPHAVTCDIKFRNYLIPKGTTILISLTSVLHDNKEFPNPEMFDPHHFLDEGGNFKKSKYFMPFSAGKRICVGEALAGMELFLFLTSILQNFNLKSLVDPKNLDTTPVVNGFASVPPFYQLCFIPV

Compound	AC50
Cc1cc(NC(=O)Nc2ccc(F)cc2)no1	15.8 µM (inconclusive)
NS(=O)(=O)c1ccc(/N=N\c2cccnc2O)cc1	3.16 µM (inconclusive)
Cc1nc2cnc(Oc3ccccc3)nc2n(C2CC2)c1=O	12.6 µM (inconclusive)
O=C(O)[C@H]1CCCC[C@@H]1c1c2ccc(=O)c(O)c-2oc2c(O)c(O)ccc12	6.31 µM (inconclusive)
Cc1noc(NS(=O)(=O)c2ccc(NC(=O)CC34CC5CC(CC(Br)(C5)C3)C4)cc2)c1C	22.4 µM (inconclusive)
Cc1nc(SCC(=O)Nc2ccc(N3CCOCC3)cc2)nc(C)c1C	12.6 µM (inconclusive)
CC(=O)c1ccc(NC(=O)C2CC(c3ccc(F)cc3)=NO2)cc1 (centres undefined)	1.12 µM (inconclusive)
CC(C)Oc1ccc(N2CC(C(=O)OCC(=O)NCc3ccccc3)CC2=O)cc1 (centres undefined)	28.2 µM (inconclusive)
Cc1cccc(CNc2ncnc3ccc(-c4cccc(C#N)c4)cc23)c1	0.794 µM (inconclusive)
COc1ccc2[nH]cc(CCNc3nc(-c4ccoc4)nc4ccccc34)c2c1	1 µM (inconclusive)
Cc1cccc(NC(S)=NNC(=O)CC(C)O)c1C (centres undefined)	0.00708 µM (inconclusive)
CCOc1ccc(N/N=C(/C#N)C(N)=O)cc1	15.8 µM (inconclusive)
O=C(O)c1ccccc1Nc1cccc(C(F)(F)F)c1 [FLUFENAMIC ACID]	10 µM (inconclusive)
CCCCCCCCN[C@@H](C)[C@H](O)c1ccc(SC(C)C)cc1 [SULOCTIDIL]	0.00501 µM (inconclusive)

system: Streptococcus; test: Group A Streptococcus viability loss, dose response, counter-screen for streptokinase expression inhibitor project, luminescence, BacTiterGlo (AID 1915); type: functional, organism-based; conditions: not given;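 also: potency for reduction of bacterial viability or growth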

Compound	EC50
COc1ccc(Br)cc1/C=C/c1ccc2cccc(O)c2n1	6.48 µM (active)
Fc1ccc(CSc2ncnc3sc4c(c23)CCCC4)cc1	> 150 µM (not active)

system: Streptococcus sp. 'group A'; test: growth inhibition of control SK(-) GAS strain, dose response, counter-screen for streptokinase expression inhibitor project, luminescence, kanamycin, BacTiterGlo, confirmation (AID 1900); type: functional, organism-based; conditions: not given

Compound	EC50
COc1ccc(Br)cc1/C=C/c1ccc2cccc(O)c2n1	0.246 µM (active)
Fc1ccc(CSc2ncnc3sc4c(c23)CCCC4)cc1	22.8 µM (active)

molecular target: T3, Cytochrome P450 1A2 (Homo sapiens, UniProt P05177); conditions: not given;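 also: PubChem cytochrome P450 panel assay, CYP1A2 panel member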
T3 sequence (P05177 whole entry): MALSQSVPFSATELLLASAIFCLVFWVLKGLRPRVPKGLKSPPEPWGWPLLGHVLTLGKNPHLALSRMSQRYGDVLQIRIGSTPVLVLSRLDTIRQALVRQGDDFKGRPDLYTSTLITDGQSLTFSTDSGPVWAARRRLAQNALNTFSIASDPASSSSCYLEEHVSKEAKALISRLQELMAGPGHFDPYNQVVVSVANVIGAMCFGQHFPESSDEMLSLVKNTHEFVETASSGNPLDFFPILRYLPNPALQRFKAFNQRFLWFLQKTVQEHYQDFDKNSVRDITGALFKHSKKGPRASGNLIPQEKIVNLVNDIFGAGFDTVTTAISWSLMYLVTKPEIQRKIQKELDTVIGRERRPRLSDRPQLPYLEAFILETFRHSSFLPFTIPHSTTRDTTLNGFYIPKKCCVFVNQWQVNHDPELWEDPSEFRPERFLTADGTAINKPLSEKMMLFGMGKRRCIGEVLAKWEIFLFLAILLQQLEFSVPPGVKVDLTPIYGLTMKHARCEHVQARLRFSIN

Compound	AC50
CCCN1C(=O)C(Cc2nc3ccccc3c(=O)n2C)c2ccccc21 (centres undefined)	25.1 µM (inconclusive)
c1cncc(-c2cc(-c3cc(-c4cccnc4)[nH]n3)n[nH]2)c1	0.501 µM (inconclusive)
NS(=O)(=O)c1ccc(/N=N\c2cccnc2O)cc1	0.501 µM (inconclusive)
CCOC(=O)C1=C(C)NC(=O)N[C@@H]1c1coc2cc(C)cc(C)c2c1=O	2.51 µM (inconclusive)
COC(=O)[C@@]1(Cc2ccc(F)cc2)[C@H]2c3cc(C(=O)N(C)C)n(Cc4c(CO)ncc(C)c4O)c3C[C@H]2CN1C(=O)c1ccccc1	25.1 µM (inconclusive)
CC(=O)c1ccc(NC(=O)C2CC(c3ccc(F)cc3)=NO2)cc1 (centres undefined)	0.00794 µM (inconclusive)
COc1cccc(C(=O)Nc2ccc(NC(=O)c3ccco3)cn2)c1	25.1 µM (inconclusive)
O=C(c1cccc(F)c1)N1CCC2(CCCN(c3ccncc3)C2)CC1	31.6 µM (inconclusive)
